{
  "source": "patent US20170216360A1",
  "about": "“METHODS AND COMPOSITIONS FOR IMPROVING HOMING OF CELLS INCLUDING MESENCHYMAL STEM CELLS” (SANOFI, priority 2014, published 2017)",
  "key": {"[1]": {"system": "MSC firm adhesion to E-selectin-coated surface", "assay": "E-selectin firm adhesion assay under shear flow, with antibody blocking", "assay_type": "cell-based, human", "settings": "3 μM for 24 h", "protocol": "(§1) Cell adhesion experiments were performed using Bioflux1000 (FluxionBio), allowing accurate control over shear flow. A special 48-well plate was used, in which a microfluidic channel (350 μm×70 μm) connects each pair of adjacent wells (termed inlet and outlet wells). The plate was placed under vacuum and the channels were coated from the inlet with recombinant human E-selectin (5 μg/mL) or ICAM-1 (5 μg/mL) and incubated at 37° C. for 1 h. Prior to introducing the cells into the channel, a wash with PBS−/− from the outlet well was performed for 5 min. Compound-pretreated MSCs were introduced into the channel, followed by attachment period of 2 minutes (no flow applied during the attachment period). Attached cells were then subjected to increasing shear flow, ranging from 0.25 dynes/cm^2 for up to 10 dynes/cm^2. Images were acquired using the Montage software and cell adhesion to the coated channels following subjection to shear flow was examined. See also disclosure elsewhere herein.\nPre-confluent MSCs were incubated for 24 hours with the indicated small molecules (3 μM). MSCs were than detached, washed and incubated for 30 minutes with an antibody reagent. The following antibodies are used: anti-human CD11a (clone: HI111), anti-human CD90 (clone: MAB2067), mouse anti-human CD11a (clone: TS1/22), and mouse IgG1 isotype control. Cells were then introduced into the channel and given 2 minutes to adhere before being subjected to increasing shear flow for a firm adhesion assay on a microfluidic channel coated with E-selectin or ICAM-1.\n(§2) 1. Obtain preferred channel coating (protein/cell monolayer). 2. Prepare cell suspension (same concentrations detailed above for different cell types). 3. Add 50 μl of cell suspension to outlet well. 4. Introduce cells into channel by applying shear force of 2 dynes/cm^2 (cells should be observed within 10-15 sec flowing from outlet to inlet). 5. Once cells are observed in the channel, stop the flow and allow the introduced cells to sit for different time periods ranging from 30 seconds to 5 minutes. 6. Following this settling period, apply shear force starting from 0.5 dynes/cm^2 up to 10 dynes/cm^2 and acquire videos using stream acquisition. 7. Cell quantification is then performed using the Montage software—percentage of cells adhered, rolled or washed away after applying shear flow should be quantified."}, "[2]": {"system": "human mesenchymal stem cells", "assay": "In vitro functional firm adhesion assay of cells (Table 3, coating not stated)", "assay_type": "cell-based", "set-up": "key to Result, in vitro Firm Adhesion: NA = negative activity result; A = positive activity result", "settings": "for Firm adhesion, Percent increase: relative to untreated and/or negative control MSCs", "protocol": "as §1, §2"}, "[3]": {"system": "human mesenchymal stromal cells (MSCs)", "assay": "Cell viability assay, IncuCyte FLR with Yoyo-1 dye (membrane integrity)", "assay_type": "cell-based", "settings": "24 hours pretreatment", "protocol": "Cell viability experiments were performed using the IncuCyte FLR (Essen Bioscience). Cells were stained with a cell impermeant cyanine dimer nucleic acid stain (Yoyo-1, Life Technologies). This fluorescent dye was used to measure cell membrane integrity. Pre-confluent human mesenchymal stromal cells (MSCs) were incubated for 24 hours with both the indicated small molecules […]. To kinetically measure MSC membrane integrity, images were acquired every two hours using an IncuCyte FLR live-cell image imaging system."}, "MSC secretome": {"system": "MSC secretome", "assay": "Secretomic analysis of small molecule-primed MSCs (Bio-plex immunoassays)", "assay_type": "cell-based, human", "settings": "for MSC secretome changes, result in words: 3 μM for 24 hours", "protocol": "A single batch of human MSCs (#7F3915) was used for all of these experiments. Cells were seeded at 25,000 cells/well in a 12-well microplate. The following day, cells were treated with the selected compound (3 μM) or DMSO (as control). After 24 hours of treatment, secretomic samples were collected, centrifuged and frozen. Secretomes of MSCs were assayed for cytokines, chemokines and growth factors using Bio-plex human 21-plex and 27-plex immunoassay kits (Bio-Rad), according to the manufacturer's instructions. The 27-plex and 21-plex panels consisted of the following analytes: IL-1alpha, IL-1beta, IL-1Ralpha, IL-2, IL-3, IL-4, IL-5, IL-6, IL-7, IL-8, IL-9, IL-10, IL12p40, IL12p70, IL-13, IL-15, IL-17, IL-18, CTACK, GROalpha, HGF, IFN-alpha2, LIF, MCP-1, MCP-3, MIF, MIG, beta-NGF, SCF, SCGF-beta, SDF-1alpha, TNF-alpha, TNF-beta, TRAIL, Eotaxin, FGF-2, G-CSF, GM-CSF, IFN-gamma, IP-10, MIP-1alpha, PDGF-bb, RANTES and VEGF. A standard range of 0.2 to 3,200 pg/mL was used. Samples and controls were run in triplicate, standards and blanks in duplicate. Error bars represent standard deviation (3 independent experiments).\nAnalysis of the secretome of MSCs was conducted upon pretreatment of MSCs with compound 1929 for 24 h. In this experiment, the MSCs were from donor 318006 (BM318006 P7). The mean and standard deviation values of secretome analytes were measured in pg/ml."}},
  "note": "Structures can show the parent of a compound that is named as a salt.",
  "data": [
    {"smiles": "CCc1c2c(nc3ccc(OC(=O)N4CCC(N5CCCCC5)CC4)cc13)-c1cc3c(c(=O)n1C2)COC(=O)[C@]3(O)CC", "note": "[Compound 1927, reference compound]", "values": [
      {"measurement": "Effect of antibody blocking of CD11a or CD90 on firm adhesion", "setting": "[1]; E-selectin", "value": "no effect"},
      {"measurement": "MSC firm adhesion to E-selectin-coated substrates, result in words", "setting": "[1]; vs vehicle-treated MSCs", "value": "did not improve"},
      {"measurement": "Firm adhesion, Percent increase", "setting": "[2]", "value": 22, "unit": "%"},
      {"measurement": "MSC viability", "setting": "[3]", "value": "did not modify MSC viability"},
      {"measurement": "MSC secretome changes, result in words", "setting": "MSC secretome", "value": "no secretome changes"}
    ]},
    {"smiles": "Cn1cc(C2=C(c3c4n(c5ccccc35)CCC(CN)C4)C(=O)NC2=O)c2ccccc21", "note": "(stereo not drawn) [Compound 1929, 3-(8-aminomethyl-6,7,8,9-tetrahydro-pyrido[1,2-a]indol-10-yl)-4-(1-methyl-1H-indol-3-yl)-pyrrole-2,5-dione hydrochloride]", "values": [
      {"measurement": "Adhered cells on E-selectin-coated surface before CD11a blocking", "setting": "[1]", "value": "~90", "unit": "%"},
      {"measurement": "Firm adhesion to E-selectin of pretreated MSC compared to control MSCs", "setting": "[1]", "value": 3, "unit": "fold"},
      {"measurement": "Adhered cells on E-selectin-coated surface following CD11a blocking", "setting": "[1]; CD11a blocking antibody 30 minutes", "value": 50, "unit": "%"},
      {"measurement": "Effect of antibody blocking of CD90 on firm adhesion", "setting": "[1]; E-selectin", "value": "no effect"},
      {"measurement": "Result, in vitro Firm Adhesion", "setting": "[2]; pretreated huMSCs", "value": "A"},
      {"measurement": "Firm adhesion, Percent increase", "setting": "[2]; hydrochloride", "value": 88, "unit": "%"},
      {"measurement": "MSC viability", "setting": "[3]", "value": "did not modify MSC viability"},
      {"measurement": "MSC secretome changes, result in words", "setting": "MSC secretome", "value": "did not substantially alter"},
      {"measurement": "Mean of [IFN-g]", "setting": "MSC secretome; 3 μM, 24 h, MSC donor 318006", "value": 14.9, "unit": "pg/mL"},
      {"measurement": "Mean of [IL-6]", "setting": "MSC secretome; 3 μM, 24 h, MSC donor 318006", "value": 333.5, "unit": "pg/mL"},
      {"measurement": "Mean of [IL-8]", "setting": "MSC secretome; 3 μM, 24 h, MSC donor 318006", "value": 31.1, "unit": "pg/mL"},
      {"measurement": "Mean of [IL-12p70]", "setting": "MSC secretome; 3 μM, 24 h, MSC donor 318006", "value": 13.9, "unit": "pg/mL"},
      {"measurement": "Mean of [MCP-1]", "setting": "MSC secretome; 3 μM, 24 h, MSC donor 318006", "value": 22.5, "unit": "pg/mL"},
      {"measurement": "Mean of [VEGF]", "setting": "MSC secretome; 3 μM, 24 h, MSC donor 318006", "value": 486.8, "unit": "pg/mL"},
      {"measurement": "IL-6 level secreted by MSC", "setting": "MSC secretome; 3 micromolar for 24 hours", "value": "downregulation"},
      {"measurement": "Fold change of analyte VEGF upon pretreatment (vs. vehicle control)", "setting": "MSC secretome; MSC secretome", "value": "0.75 +/− 0.26"}
    ]}
  ]
}
